# Test results reported in patent publication EP1082099B1, “SURFACTANT FOR USE IN EXTERNAL PREPARATIONS FOR SKIN AND EXTERNAL PREPARATION FOR SKIN CONTAINING THE SAME” (Showa Denko K K, priority 1998, dated 1999).
# How the values were obtained:
# [1] = Surface tension test (plate method); assay type: physicochemical; details: 0.1 wt% in water, 25°C
# Method: The dried medium preparation and purified surfactin sodium salt were each dissolved in water in an amount of 0.1 wt% and their ability of decreasing surface tension was tested. […]
# [2] = system: three-dimensional skin model; test: Skin irritation test: MTT cytotoxicity on three-dimensional cultured skin model; assay type: cell-based; details: test substance in PBS pH 7, 1 hour exposure, 16 hours incubation, read from graph
# Method: Using a three-dimensional skin model (trade name: Three-dimensional cultured skin model, manufactured by Gunze), skin irritation tests were performed. […] The test substances were adjusted with PBS (Phosphate Buffer Saline, pH 7) so that they were in various concentrations. To the thus-adjusted test substances was exposed the skin model for 1 hour. Thereafter, the test substances were washed and incubated for 16 hours in a medium attached to the above-described three-dimensional skin model. After the incubation, a solution of MTT (3-(4,5-dimethylthiazol-2-yl)-2,5-diphenyltetrazolium bromide) was added and pigments were extracted with isopropanol rendered acidic with hydrochloric acid, followed by measurement of absorbance at a wavelength of 570 nm. […] This value was called B. The MTT solution was added to PBS and extraction was performed similarly. Absorbance of the extract measured at a wavelength of 570 nm was named C. From these values was calculated cytotoxicity. Calculation was made according to the following equation. Cytotoxicity (%) = (1-(A-c)/(B-C)) x 100 [formula]
# Plotting the concentration of a test substance on the axis of abscissa and cytotoxicity on the axis of ordinate, a graph was obtained, from which the concentration of a test compound at 50% cytotoxicity was read.
# [3] = Turbidity test of surfactin solutions with alkaline earth metal, judged visually after storage; assay type: physicochemical; parameters: key: -: Not turbid; +: Turbid; details: 40°C for 7 days
# Method: (§1) Samples were prepared by dissolving surfactin sodium salt in a concentration of 0 or 0.2% and calcium chloride dihydrate in a calcium concentration of 0, 10, or 20 ppm in each of solvents described below, and each solution was charged in a screw vial and sealed, which was then left to stand at 40°C for 7 days. After 7 days, the turbidity of each sample was judged visually.
# (§2) Samples were prepared by dissolving 0.2% surfactin sodium salt and magnesium chloride dihydrate in a magnesium concentration of 0, 10, or 20 ppm in each of solvents described below, and each solution was charged in a screw vial and sealed, which was then left to stand at 40°C for 7 days. After 7 days, the turbidity of each sample was judged visually.
# (§3) Samples were prepared by dissolving 0.2% surfactin sodium salt and calcium chloride dihydrate in a calcium concentration of 0.1, 1, or 10 ppm in the solvent described below and further disodium edetate was added in an amount of 0, 0.0001, 0.001, 0.01, 0.1, 0.2, 1, or 3%, respectively. Then, each solution was charged in a screw vial and sealed, which was then left to stand at 40°C for 7 days. After 7 days, the turbidity of each sample was judged visually. […]
# (§4) Samples were prepared by dissolving 0.2% surfactin sodium salt and calcium chloride dihydrate in a calcium concentration of 0.1, 1, or 10 ppm in the solvent described below and further sodium citrate was added in an amount of 0, 0.0001, 0.001, 0.01, 0.1, 0.2, 1, or 3%, respectively. Then, each solution was charged in a screw vial and sealed, which was then left to stand at 40°C for 7 days. After 7 days, the turbidity of each sample was judged visually. […]
# [4] = as above; assay type: physicochemical; parameters: key: -: Not turbid; ±: Slightly turbid; +: Turbid; details: 40°C for 7 days
# Method: as §1, §2, §3, §4
substance,measurement,setting,value
surfactin sodium salt,Surface Tension,[1],27.6 mN/m
same,Concentration of surfactant at 50% cytotoxicity,[2],24.4%
same,turbidity,"[3]; 0.2% surfactin sodium salt in Solvent 1 (deionized water), magnesium 0 ppm",-
same,turbidity,"[3]; 0.2% surfactin sodium salt in Solvent 1 (deionized water), magnesium 10 ppm",+
same,turbidity,"[3]; 0.2% surfactin sodium salt in Solvent 1 (deionized water), magnesium 20 ppm",+
same,turbidity,"[3]; 0.2% surfactin sodium salt in Solvent 2 (7% Ethanol, 93% deionized water), magnesium 0 ppm",-
same,turbidity,"[3]; 0.2% surfactin sodium salt in Solvent 3 (7% Ethanol, 5% glycerin, 5% 1,3-butylene glycol, 83% deionized water), magnesium 0 ppm",-
same,turbidity,"[3]; 0.2% surfactin sodium salt, sodium citrate 0%, calcium 0.1 ppm, solvent 7% Ethanol, 5% glycerin, 5% 1,3-butylene glycol, 83% deionized water",-
same,turbidity,"[3]; 0.2% surfactin sodium salt, sodium citrate 0%, calcium 1 ppm, solvent 7% Ethanol, 5% glycerin, 5% 1,3-butylene glycol, 83% deionized water",+
same,turbidity,"[3]; 0.2% surfactin sodium salt, sodium citrate 0%, calcium 10 ppm, solvent 7% Ethanol, 5% glycerin, 5% 1,3-butylene glycol, 83% deionized water",+
same,turbidity,"[3]; 0.2% surfactin sodium salt, sodium citrate 0.0001%, calcium 0.1 ppm, solvent 7% Ethanol, 5% glycerin, 5% 1,3-butylene glycol, 83% deionized water",-
same,turbidity,"[3]; 0.2% surfactin sodium salt, sodium citrate 0.0001%, calcium 10 ppm, solvent 7% Ethanol, 5% glycerin, 5% 1,3-butylene glycol, 83% deionized water",+
same,turbidity,"[3]; 0.2% surfactin sodium salt, sodium citrate 0.001%, calcium 0.1 ppm, solvent 7% Ethanol, 5% glycerin, 5% 1,3-butylene glycol, 83% deionized water",-
same,turbidity,"[3]; 0.2% surfactin sodium salt, sodium citrate 0.001%, calcium 1 ppm, solvent 7% Ethanol, 5% glycerin, 5% 1,3-butylene glycol, 83% deionized water",-
same,turbidity,"[3]; 0.2% surfactin sodium salt, sodium citrate 0.001%, calcium 10 ppm, solvent 7% Ethanol, 5% glycerin, 5% 1,3-butylene glycol, 83% deionized water",+
same,turbidity,"[3]; 0.2% surfactin sodium salt, sodium citrate 0.01%, calcium 0.1 ppm, solvent 7% Ethanol, 5% glycerin, 5% 1,3-butylene glycol, 83% deionized water",-
same,turbidity,"[3]; 0.2% surfactin sodium salt, sodium citrate 0.01%, calcium 1 ppm, solvent 7% Ethanol, 5% glycerin, 5% 1,3-butylene glycol, 83% deionized water",-
same,turbidity,"[3]; 0.2% surfactin sodium salt, sodium citrate 0.01%, calcium 10 ppm, solvent 7% Ethanol, 5% glycerin, 5% 1,3-butylene glycol, 83% deionized water",-
same,turbidity,"[3]; 0.2% surfactin sodium salt, sodium citrate 0.1%, calcium 0.1 ppm, solvent 7% Ethanol, 5% glycerin, 5% 1,3-butylene glycol, 83% deionized water",-
same,turbidity,"[3]; 0.2% surfactin sodium salt, sodium citrate 0.1%, calcium 1 ppm, solvent 7% Ethanol, 5% glycerin, 5% 1,3-butylene glycol, 83% deionized water",-
same,turbidity,"[3]; 0.2% surfactin sodium salt, sodium citrate 0.1%, calcium 10 ppm, solvent 7% Ethanol, 5% glycerin, 5% 1,3-butylene glycol, 83% deionized water",-
same,turbidity,"[3]; 0.2% surfactin sodium salt, sodium citrate 0.2%, calcium 0.1 ppm, solvent 7% Ethanol, 5% glycerin, 5% 1,3-butylene glycol, 83% deionized water",-
same,turbidity,"[3]; 0.2% surfactin sodium salt, sodium citrate 0.2%, calcium 1 ppm, solvent 7% Ethanol, 5% glycerin, 5% 1,3-butylene glycol, 83% deionized water",-
same,turbidity,"[3]; 0.2% surfactin sodium salt, sodium citrate 0.2%, calcium 10 ppm, solvent 7% Ethanol, 5% glycerin, 5% 1,3-butylene glycol, 83% deionized water",-
same,turbidity,"[3]; 0.2% surfactin sodium salt, sodium citrate 1%, calcium 0.1 ppm, solvent 7% Ethanol, 5% glycerin, 5% 1,3-butylene glycol, 83% deionized water",-
same,turbidity,"[3]; 0.2% surfactin sodium salt, sodium citrate 1%, calcium 1 ppm, solvent 7% Ethanol, 5% glycerin, 5% 1,3-butylene glycol, 83% deionized water",-
same,turbidity,"[3]; 0.2% surfactin sodium salt, sodium citrate 1%, calcium 10 ppm, solvent 7% Ethanol, 5% glycerin, 5% 1,3-butylene glycol, 83% deionized water",-
same,turbidity,"[3]; 0.2% surfactin sodium salt, sodium citrate 3%, calcium 0.1 ppm, solvent 7% Ethanol, 5% glycerin, 5% 1,3-butylene glycol, 83% deionized water",-
same,turbidity,"[3]; 0.2% surfactin sodium salt, sodium citrate 3%, calcium 1 ppm, solvent 7% Ethanol, 5% glycerin, 5% 1,3-butylene glycol, 83% deionized water",-
same,turbidity,"[3]; 0.2% surfactin sodium salt, sodium citrate 3%, calcium 10 ppm, solvent 7% Ethanol, 5% glycerin, 5% 1,3-butylene glycol, 83% deionized water",-
same,turbidity,"[3]; 0.2% surfactin sodium salt, sodium edetate 0%, calcium 0.1 ppm, solvent 7% Ethanol, 5% glycerin, 5% 1,3-butylene glycol, 83% deionized water",-
same,turbidity,"[3]; 0.2% surfactin sodium salt, sodium edetate 0%, calcium 1 ppm, solvent 7% Ethanol, 5% glycerin, 5% 1,3-butylene glycol, 83% deionized water",+
same,turbidity,"[3]; 0.2% surfactin sodium salt, sodium edetate 0%, calcium 10 ppm, solvent 7% Ethanol, 5% glycerin, 5% 1,3-butylene glycol, 83% deionized water",+
same,turbidity,"[3]; 0.2% surfactin sodium salt, sodium edetate 0.0001%, calcium 0.1 ppm, solvent 7% Ethanol, 5% glycerin, 5% 1,3-butylene glycol, 83% deionized water",-
same,turbidity,"[3]; 0.2% surfactin sodium salt, sodium edetate 0.0001%, calcium 10 ppm, solvent 7% Ethanol, 5% glycerin, 5% 1,3-butylene glycol, 83% deionized water",+
same,turbidity,"[3]; 0.2% surfactin sodium salt, sodium edetate 0.001%, calcium 0.1 ppm, solvent 7% Ethanol, 5% glycerin, 5% 1,3-butylene glycol, 83% deionized water",-
same,turbidity,"[3]; 0.2% surfactin sodium salt, sodium edetate 0.001%, calcium 1 ppm, solvent 7% Ethanol, 5% glycerin, 5% 1,3-butylene glycol, 83% deionized water",-
same,turbidity,"[3]; 0.2% surfactin sodium salt, sodium edetate 0.001%, calcium 10 ppm, solvent 7% Ethanol, 5% glycerin, 5% 1,3-butylene glycol, 83% deionized water",+
same,turbidity,"[3]; 0.2% surfactin sodium salt, sodium edetate 0.01%, calcium 0.1 ppm, solvent 7% Ethanol, 5% glycerin, 5% 1,3-butylene glycol, 83% deionized water",-
same,turbidity,"[3]; 0.2% surfactin sodium salt, sodium edetate 0.01%, calcium 1 ppm, solvent 7% Ethanol, 5% glycerin, 5% 1,3-butylene glycol, 83% deionized water",-
same,turbidity,"[3]; 0.2% surfactin sodium salt, sodium edetate 0.01%, calcium 10 ppm, solvent 7% Ethanol, 5% glycerin, 5% 1,3-butylene glycol, 83% deionized water",-
same,turbidity,"[3]; 0.2% surfactin sodium salt, sodium edetate 0.1%, calcium 0.1 ppm, solvent 7% Ethanol, 5% glycerin, 5% 1,3-butylene glycol, 83% deionized water",-
same,turbidity,"[3]; 0.2% surfactin sodium salt, sodium edetate 0.1%, calcium 1 ppm, solvent 7% Ethanol, 5% glycerin, 5% 1,3-butylene glycol, 83% deionized water",-
same,turbidity,"[3]; 0.2% surfactin sodium salt, sodium edetate 0.1%, calcium 10 ppm, solvent 7% Ethanol, 5% glycerin, 5% 1,3-butylene glycol, 83% deionized water",-
same,turbidity,"[3]; 0.2% surfactin sodium salt, sodium edetate 0.2%, calcium 0.1 ppm, solvent 7% Ethanol, 5% glycerin, 5% 1,3-butylene glycol, 83% deionized water",-
same,turbidity,"[3]; 0.2% surfactin sodium salt, sodium edetate 0.2%, calcium 1 ppm, solvent 7% Ethanol, 5% glycerin, 5% 1,3-butylene glycol, 83% deionized water",-
same,turbidity,"[3]; 0.2% surfactin sodium salt, sodium edetate 0.2%, calcium 10 ppm, solvent 7% Ethanol, 5% glycerin, 5% 1,3-butylene glycol, 83% deionized water",-
same,turbidity,"[3]; 0.2% surfactin sodium salt, sodium edetate 1%, calcium 0.1 ppm, solvent 7% Ethanol, 5% glycerin, 5% 1,3-butylene glycol, 83% deionized water",-
same,turbidity,"[3]; 0.2% surfactin sodium salt, sodium edetate 1%, calcium 1 ppm, solvent 7% Ethanol, 5% glycerin, 5% 1,3-butylene glycol, 83% deionized water",-
same,turbidity,"[3]; 0.2% surfactin sodium salt, sodium edetate 1%, calcium 10 ppm, solvent 7% Ethanol, 5% glycerin, 5% 1,3-butylene glycol, 83% deionized water",-
same,turbidity,"[3]; 0.2% surfactin sodium salt, sodium edetate 3%, calcium 0.1 ppm, solvent 7% Ethanol, 5% glycerin, 5% 1,3-butylene glycol, 83% deionized water",-
same,turbidity,"[3]; 0.2% surfactin sodium salt, sodium edetate 3%, calcium 1 ppm, solvent 7% Ethanol, 5% glycerin, 5% 1,3-butylene glycol, 83% deionized water",-
same,turbidity,"[3]; 0.2% surfactin sodium salt, sodium edetate 3%, calcium 10 ppm, solvent 7% Ethanol, 5% glycerin, 5% 1,3-butylene glycol, 83% deionized water",-
same,turbidity,"[3]; Surfactin 0.2% in Solvent 1 (deionized water), calcium 0 ppm",-
same,turbidity,"[3]; Surfactin 0.2% in Solvent 1 (deionized water), calcium 10 ppm",+
same,turbidity,"[3]; Surfactin 0.2% in Solvent 1 (deionized water), calcium 20 ppm",+
same,turbidity,"[3]; Surfactin 0.2% in Solvent 2 (7% Ethanol, 93% deionized water), calcium 0 ppm",-
same,turbidity,"[3]; Surfactin 0.2% in Solvent 2 (7% Ethanol, 93% deionized water), calcium 10 ppm",+
same,turbidity,"[3]; Surfactin 0.2% in Solvent 2 (7% Ethanol, 93% deionized water), calcium 20 ppm",+
same,turbidity,"[3]; Surfactin 0.2% in Solvent 3 (7% Ethanol, 5% glycerin, 5% 1,3-butylene glycol, 83% deionized water), calcium 0 ppm",-
same,turbidity,"[3]; Surfactin 0.2% in Solvent 3 (7% Ethanol, 5% glycerin, 5% 1,3-butylene glycol, 83% deionized water), calcium 10 ppm",+
same,turbidity,"[3]; Surfactin 0.2% in Solvent 3 (7% Ethanol, 5% glycerin, 5% 1,3-butylene glycol, 83% deionized water), calcium 20 ppm",+
same,turbidity,"[4]; 0.2% surfactin sodium salt in Solvent 2 (7% Ethanol, 93% deionized water), magnesium 10 ppm",±
same,turbidity,"[4]; 0.2% surfactin sodium salt in Solvent 2 (7% Ethanol, 93% deionized water), magnesium 20 ppm",±
same,turbidity,"[4]; 0.2% surfactin sodium salt in Solvent 3 (7% Ethanol, 5% glycerin, 5% 1,3-butylene glycol, 83% deionized water), magnesium 10 ppm",±
same,turbidity,"[4]; 0.2% surfactin sodium salt in Solvent 3 (7% Ethanol, 5% glycerin, 5% 1,3-butylene glycol, 83% deionized water), magnesium 20 ppm",±
same,turbidity,"[4]; 0.2% surfactin sodium salt, sodium citrate 0.0001%, calcium 1 ppm, solvent 7% Ethanol, 5% glycerin, 5% 1,3-butylene glycol, 83% deionized water",±
same,turbidity,"[4]; 0.2% surfactin sodium salt, sodium edetate 0.0001%, calcium 1 ppm, solvent 7% Ethanol, 5% glycerin, 5% 1,3-butylene glycol, 83% deionized water",±
